Results from ChEMBL document CHEMBL1201862, “PubChem BioAssay data set” (2004).
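Exposure lasted 48 hours, with cells grown in 96-well plates and compounds tested at five concentrations. GI50 is the concentration that inhibits growth by half.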 Calls of active or inactive are those of the source. Cut-off read from the data, not from the text of the source: active = GI50 up to about 1.1 µM and inactive = higher.

Experiments:
Test in all cases: NCI-60 cell line screen, 48 h
[1] = test system: 786-0
[2] = test system: A549
[3] = test system: ACHN
[4] = test system: BT-549
[5] = test system: CAKI-1
[6] = test system: CCRF-CEM
[7] = test system: COLO 205
[8] = test system: DU-145
[9] = test system: EKVX
[10] = test system: HCT-116
[11] = test system: HCT-15
[12] = test system: HL-60
[13] = test system: HOP-62
[14] = test system: HT-29
[15] = test system: Hs-578T
[16] = test system: IGROV-1
[17] = test system: K562
[18] = test system: KM12
[19] = test system: LOX IMVI
[20] = test system: M14
[21] = test system: MCF7
[22] = test system: MDA-MB-231
[23] = test system: MDA-MB-435
[24] = test system: MDA-N
[25] = test system: MOLT-4
[26] = test system: Malme-3M
[27] = test system: NCI-H226
[28] = test system: NCI-H23
[29] = test system: NCI-H460
[30] = test system: NCI-H522
[31] = test system: NCI/ADR-RES
[32] = test system: OVCAR-3
[33] = test system: OVCAR-4
[34] = test system: OVCAR-5
[35] = test system: OVCAR-8
[36] = test system: PC-3
[37] = test system: RPMI-8226
[38] = test system: RXF 393
[39] = test system: SF-268
[40] = test system: SF-295
[41] = test system: SF-539
[42] = test system: SK-MEL-28
[43] = test system: SK-MEL-2
[44] = test system: SK-MEL-5
[45] = test system: SK-OV-3
[46] = test system: SN12C
[47] = test system: SNB-19
[48] = test system: SNB-75
[49] = test system: SR
[50] = test system: SW-620
[51] = test system: T47D
[52] = test system: TK-10
[53] = test system: U-251
[54] = test system: UACC-257
[55] = test system: UACC-62

## Cc1cc2nc3c(C#N)c4c(c(Nc5ccc(F)cc5)n3c2cc1C)CCC4
[1]
  GI50: > 100 µM (inactive)
[2]
  GI50: > 100 µM (inactive)
[3]
  GI50: > 100 µM (inactive)
[4]
  GI50: > 100 µM (inactive)
[5]
  GI50: > 100 µM (inactive)
[6]
  GI50: > 100 µM (inactive)
[7]
  GI50: > 100 µM (inactive)
[8]
  GI50: > 100 µM (inactive)
[9]
  GI50: > 100 µM (inactive)
[10]
  GI50: > 100 µM (inactive)
[11]
  GI50: > 100 µM
[12]
  GI50: > 100 µM (inactive)
[13]
  GI50: > 100 µM (inactive)
[14]
  GI50: > 100 µM (inactive)
[15]
  GI50: 70.5 µM (inactive)
[16]
  GI50: > 100 µM (inactive)
[17]
  GI50: > 100 µM (inactive)
[18]
  GI50: > 100 µM (inactive)
[19]
  GI50: > 100 µM (inactive)
[20]
  GI50: > 100 µM (inactive)
[21]
  GI50: > 100 µM (inactive)
[22]
  GI50: > 100 µM (inactive)
[23]
  GI50: > 100 µM (inactive)
[24]
  GI50: > 100 µM (inactive)
[25]
  GI50: > 100 µM (inactive)
[26]
  GI50: 52.2 µM (inactive)
[27]
  GI50: > 100 µM (inactive)
[28]
  GI50: > 100 µM (inactive)
[29]
  GI50: > 100 µM (inactive)
[30]
  GI50: 95.5 µM (inactive)
[31]
  GI50: > 100 µM (inactive)
[32]
  GI50: > 100 µM (inactive)
[33]
  GI50: > 100 µM (inactive)
[34]
  GI50: > 100 µM (inactive)
[35]
  GI50: > 100 µM (inactive)
[36]
  GI50: > 100 µM (inactive)
[37]
  GI50: > 100 µM (inactive)
[38]
  GI50: > 100 µM (inactive)
[39]
  GI50: > 100 µM (inactive)
[40]
  GI50: > 100 µM (inactive)
[41]
  GI50: > 100 µM (inactive)
[42]
  GI50: > 100 µM (inactive)
[43]
  GI50: > 100 µM (inactive)
[44]
  GI50: > 100 µM (inactive)
[45]
  GI50: > 100 µM (inactive)
[46]
  GI50: > 100 µM (inactive)
[47]
  GI50: > 100 µM (inactive)
[48]
  GI50: > 100 µM (inactive)
[49]
  GI50: > 100 µM (inactive)
[50]
  GI50: > 100 µM (inactive)
[51]
  GI50: > 100 µM (inactive)
[52]
  GI50: > 100 µM (inactive)
[53]
  GI50: > 100 µM (inactive)
[54]
  GI50: > 100 µM (inactive)
[55]
  GI50: > 100 µM (inactive)
